Test results as given in PubChem BioAssay (NCI).
“And” between values parts separate entries of the source, which are not always exact repeats. Identical values can stand only once.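 Assay format: 96-well plates, 48-hour exposure. GI50 marks 50% less growth. At the TGI there is no net growth.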

Tests used:
Assay in all cases: growth of human tumour cells (NCI), 48 h
[1] = system: OVCAR-5 ovarian
[2] = system: HCT-15 colon
[3] = system: A549 NSCLC
[4] = system: SK-MEL-28 melanoma
[5] = system: EKVX NSCLC
[6] = system: COLO 205 colon
[7] = system: 786-0 renal
[8] = system: LOX IMVI melanoma
[9] = system: CCRF-CEM leukemia
[10] = system: MDA-MB-435
[11] = system: MDA-MB-231 breast

Compound	TGI [1]	TGI [2]	TGI [3]	TGI [4]	TGI [5]	TGI [6]	TGI [7]	TGI [8]	TGI [9]	GI50 [1]	TGI [10]	TGI [11]
COC(=O)C(=Cc1cc(OC)c(OC)c(OC)c1-c1cc2c(cc1C1(C)OCCS1)OCO2)C(=O)OC (centres undefined)	> 100 µM	> 100 µM	> 100 µM	> 100 µM	> 100 µM	> 100 µM	> 100 µM	> 100 µM	> 100 µM			
CCOC(=O)N1CCC(N[C@@H]2c3cc4c(cc3C(c3cc(OC)c(O)c(OC)c3)C3C(=O)OC[C@@H]32)OCO4)CC1 (some centres undefined)	14 µM and 17.4 µM	2.97 µM and 4.43 µM	1.44 µM and 5.01 µM	27.1 µM and 16.4 µM	4.86 µM and 7.1 µM	15.1 µM and 13.1 µM	2.94 µM and 4.8 µM	7.97 µM and 12.4 µM	18.9 µM and > 25 µM	3.3 µM and 7.49 µM		
COc1ccc(C2c3cn[nH]c3CC3CCCCC32)cc1 (centres undefined)	34.8 µM	31.7 µM	30.9 µM	33.4 µM			33.2 µM	31.8 µM	53.9 µM		40.4 µM	30.4 µM
CC(c1ccccc1)N1CCN(C(C)c2ccccc2)CC1 (centres undefined)	> 100 µM	> 100 µM	> 100 µM	95.4 µM	> 100 µM		> 100 µM	> 100 µM			> 100 µM	> 100 µM
BrC(=C(c1ccc(OC2CCCCO2)cc1)c1ccc(OC2CCCCO2)cc1)c1ccccc1 (centres undefined)		> 100 µM	> 100 µM	> 100 µM	> 100 µM	> 100 µM	> 100 µM	> 100 µM	> 100 µM		> 100 µM	> 100 µM
O=C1OCC/C1=N/O	> 100 µM	> 100 µM	> 100 µM	> 100 µM	> 100 µM	> 100 µM	> 100 µM		> 100 µM			
CCCCCC#CCOC(=O)C(=[N+]=[N-])P(=O)(c1ccccc1)c1ccccc1	> 10 µM	> 10 µM	> 10 µM	> 10 µM	> 10 µM		> 10 µM	> 10 µM			> 10 µM	> 10 µM
COc1cc(OC)cc(C(=O)CC(=O)c2cc(OC)cc(OC)c2)c1	> 100 µM	> 100 µM	> 100 µM	> 100 µM	> 100 µM	> 100 µM	> 100 µM		> 100 µM		> 100 µM	
Cc1ccc(C2=CC(=O)OC(C[P+](c3ccccc3)(c3ccccc3)c3ccccc3)(c3ccccc3)O2)cc1 (centres undefined)	42.7 µM	42.8 µM	34.3 µM	33.5 µM	30 µM	28.3 µM	35.7 µM		99.4 µM		30.7 µM	82.3 µM
Cc1nc(C)c(N2CCN([N+](=O)[O-])CC2)c(=O)[nH]1		> 100 µM	> 100 µM	> 100 µM	> 100 µM	> 100 µM	> 100 µM	> 100 µM	> 100 µM		> 100 µM	> 100 µM
CC(O)CNC(=O)C(C)Oc1ccc(OCC2CCCCC2)cc1 (centres undefined)		> 100 µM	> 100 µM	> 100 µM			> 100 µM	> 100 µM	> 100 µM			
